Experimental findings from publication PMC2529273, “Pharmacological Properties of DOV 315,090, an ocinaplon metabolite” (BMC Pharmacology, 2008) are described below.

The target of data set [1] is T1, α2β2γ2S GABAA-R (Rattus norvegicus, UniProt P18508+P23576). Nature of the data set: cell-based. The method, then:
(§1) cRNAs encoding GABAA-R α1, α2, α3, α5, β2 and γ2S subunits were injected into oocytes from Xenopus laevis. […] GABA (Sigma) was prepared as a 1 M stock solution in ND96. Microelectrodes of 1–3 MΩ when filled with 3 M KCl were used to record from oocytes in a recording chamber continuously perfused with ND-96 buffer solution. During data acquisition, oocytes were clamped at a holding potential of -70 mV. Drugs were applied by perfusion at a rate of approximately 50 μl sec^-1 for 20 s followed by a 120 s wash. […] All experiments were performed at room temperature (22–24°C).
(§2) GABA concentration-response data was obtained for each subunit combination, and the GABA EC10 was determined by nonlinear regression using the logistic equation. This concentration of GABA was used for modulation studies. Peak current measurements were normalized and expressed as a fraction of the peak control current measurements. Control responses to an EC10 concentration of GABA were re-determined after every 2 – 4 applications of modulator + GABA. […] Potentiation data from each oocyte was fitted to the equation Potentiation = Emax × [Drug]/([Drug + EC50) by non-linear regression (Prism, Graph-Pad software). […] Given the lack of consistency of this possible high affinity effect, we have omitted it in fitting our concentration-effect curves. The choice of fitting to a monophasic or biphasic equation had only a small effect on the EC50 for the major component of modulation.
(§3) Rat GABAA-Rs consisting of α1β2γ2S, α2β2γ2S, α3β2γ2S and α5β2γ2S subunits were expressed in Xenopus oocytes. […] Higher concentrations (in parentheses) were excluded from the fit due to a decline in potentiation at higher concentrations.

The target of data set [2] is T2, α1β2γ2S GABAA-R (Rattus norvegicus, UniProt P18508+P62813). Nature of the data set: cell-based. As to the method: as §1, §2, §3
The target of data set [3] is T3, α5β2γ2S GABAA-R (Rattus norvegicus, UniProt P18508+P19969). Briefly: cell-based. The method, then: as §1, §2, §3
Data set [4] has as its target T4, α3β2γ2S GABAA-R (Rattus norvegicus, UniProt P18508+P20236). Nature of the data set: cell-based. Format: cell-based. The method, then:
as §1, §2, §3

For data set [5], the target named is T5, α2β2γ3 GABAA-R (Rattus norvegicus, UniProt P23576+P28473).
T5 construct: expressed in transfected cells; host or cells: HEK293 (CRL 1573), transient transfection
Nature of the data set: biochemical. The format is binding. The method, then: (§4) HEK293 cells (CRL 1573, American type Culture Collection, Rockville, MD, USA) were cultured in Dulbecco's modified Eagle's medium (D-MEM, Invitrogen, Carlsbad, CA, USA) supplemented with 10% fetal bovine serum (Invitrogen, Carlsbad, CA, USA) and 1% MEM Non-Essential Amino Acids Solution (Invitrogen, Carlsbad, CA, USA). cDNAs encoding rat GABAA-R subunits were in the following vectors: α1 and α5 in pRc/CMV, α2, α3, γ2S and γ3 in pcDNA3 and β2 in pcDNA1. The cells were transiently transfected (5 μg of each cDNA per 100 mm dish) using FuGene™ (Roche Diagnostics Corporation) at a 3:1 FuGene:DNA ratio. […] Forty-eight hours after transfection, cells were washed with ice-cold PBS, harvested and homogenized. Cell homogenates were centrifuged (100,000 g, 25 min) and washed three times by homogenization in ice-cold PBS buffer followed by centrifugation at 100,000 g for 25 min. The final pellets were stored at -20°C until needed.
(§5) The samples were then diluted with 5 ml of ice-cold buffer and filtered under vacuum through glass-fiber filters (GF/B Whatman). Filters were washed 3 times with 5 ml of buffer and the radioactivity was quantitated by liquid scintillation counting in 5 ml of Ecolite scintillation fluid (ICN). Non-specific binding determined in the presence of 100 μM Ro 15–1788 (Sigma-Aldrich) was subtracted from total binding to calculate specific binding. Data were analyzed by non-linear regression (Prism, Graph-Pad software).

The target of data set [6] is T6, α1β2γ3 GABAA-R (Rattus norvegicus, UniProt P28473+P62813).
T6 construct: expressed in transfected cells; host or cells: HEK293 (CRL 1573), transient transfection
Briefly: biochemical. Format: binding. As to the method:
as §4, §5

The target in data set [7] is T7, α5β2γ3 GABAA-R (Rattus norvegicus, UniProt P19969+P28473).
T7 construct: expressed in transfected cells; host or cells: HEK293 (CRL 1573), transient transfection
Nature of the data set: biochemical. Format: binding. As to the method: as §4, §5

Data set [8] concerns the target T1, α2β2γ2S GABAA-R. Nature of the data set: biochemical. Format: binding. As to the method: as §4, §5
For data set [9], the target named is T4, α3β2γ2S GABAA-R. Briefly: biochemical. Format: binding. As to the method:
as §4, §5

Data set [10] addresses T2, α1β2γ2S GABAA-R. Briefly: biochemical. Format: binding. The method, then: as §4, §5
In data set [11] the target is T3, α5β2γ2S GABAA-R. Briefly: biochemical. The format is binding. The method, then: as §4, §5
The nature of data set [12]: in vivo. The following applies: in vivo; rat, one animal excluded from the plot, 10 min after oral 5 mg/kg ocinaplon, may have regurgitated part of the dose; read-out: blood level. Format: in vivo, rat. As to the method:
At 1 h, corresponding to the time at which the anticonflict effect of ocinaplon was evaluated, the plasma concentration of DOV 315,090 is ~38% of the concentration of parent compound.
Figure 2 Pharmacokinetics of ocinaplon and DOV 315,090. Blood levels of ocinaplon (●,○) and DOV 315090 (▲,△) were determined at various times after i.v. (●,▲) or oral (○,△) administration of 5 mg/kg ocinaplon to rats. […] This animal may have regurgitated a portion of the dose (of the suspension).

[13] abbreviates: mean ± SEM, n = 3, read-out: pIC50 (converted).
The mark [14] stands for this setting: [3H]Ro15-1788 displacement, n = 3, read-out: IC50.

Like-named read-outs stand apart in the source and are kept apart here.

T3 sequence (P19969 32-464 limits assumed): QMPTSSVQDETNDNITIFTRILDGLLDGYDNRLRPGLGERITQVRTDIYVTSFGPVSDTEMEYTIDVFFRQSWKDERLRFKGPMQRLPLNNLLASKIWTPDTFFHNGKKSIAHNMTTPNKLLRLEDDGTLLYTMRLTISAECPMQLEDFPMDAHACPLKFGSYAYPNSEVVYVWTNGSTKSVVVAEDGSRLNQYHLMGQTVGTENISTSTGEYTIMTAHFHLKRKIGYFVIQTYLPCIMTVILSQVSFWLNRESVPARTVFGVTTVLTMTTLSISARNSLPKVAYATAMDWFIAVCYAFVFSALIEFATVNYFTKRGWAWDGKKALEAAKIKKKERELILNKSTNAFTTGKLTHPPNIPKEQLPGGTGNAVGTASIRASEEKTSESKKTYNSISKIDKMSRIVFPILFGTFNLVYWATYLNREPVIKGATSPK
T3 sequence (P63138 25-474 partner limits assumed): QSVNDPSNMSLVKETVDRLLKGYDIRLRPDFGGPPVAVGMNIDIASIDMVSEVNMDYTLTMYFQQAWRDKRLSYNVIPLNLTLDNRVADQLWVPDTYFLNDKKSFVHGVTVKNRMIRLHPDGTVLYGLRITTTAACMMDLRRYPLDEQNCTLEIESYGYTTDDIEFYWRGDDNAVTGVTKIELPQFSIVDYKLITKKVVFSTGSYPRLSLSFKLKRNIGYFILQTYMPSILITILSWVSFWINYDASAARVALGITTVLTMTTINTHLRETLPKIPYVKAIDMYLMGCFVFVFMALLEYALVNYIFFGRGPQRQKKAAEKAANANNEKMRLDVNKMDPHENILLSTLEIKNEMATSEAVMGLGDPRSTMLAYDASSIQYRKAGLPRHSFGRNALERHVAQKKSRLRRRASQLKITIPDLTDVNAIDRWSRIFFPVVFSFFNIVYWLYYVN
T3 sequence (P18508 39-466): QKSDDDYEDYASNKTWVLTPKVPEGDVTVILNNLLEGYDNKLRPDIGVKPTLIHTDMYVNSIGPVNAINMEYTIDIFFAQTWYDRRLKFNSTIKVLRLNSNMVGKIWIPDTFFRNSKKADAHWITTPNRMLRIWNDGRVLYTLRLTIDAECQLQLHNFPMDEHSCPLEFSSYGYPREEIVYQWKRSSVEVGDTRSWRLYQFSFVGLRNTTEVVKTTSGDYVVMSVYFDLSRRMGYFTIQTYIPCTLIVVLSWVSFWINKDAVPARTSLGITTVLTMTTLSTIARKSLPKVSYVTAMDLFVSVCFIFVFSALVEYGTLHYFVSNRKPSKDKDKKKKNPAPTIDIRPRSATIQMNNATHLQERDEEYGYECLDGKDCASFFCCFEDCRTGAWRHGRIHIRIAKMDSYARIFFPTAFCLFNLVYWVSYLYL
T7 sequence (P19969 32-464 limits assumed): as the sequence (P19969 32-464 limits assumed) above
T7 sequence (P63138 25-474 partner limits assumed): as the sequence (P63138 25-474 partner limits assumed) above
T7 sequence (P28473 18-467): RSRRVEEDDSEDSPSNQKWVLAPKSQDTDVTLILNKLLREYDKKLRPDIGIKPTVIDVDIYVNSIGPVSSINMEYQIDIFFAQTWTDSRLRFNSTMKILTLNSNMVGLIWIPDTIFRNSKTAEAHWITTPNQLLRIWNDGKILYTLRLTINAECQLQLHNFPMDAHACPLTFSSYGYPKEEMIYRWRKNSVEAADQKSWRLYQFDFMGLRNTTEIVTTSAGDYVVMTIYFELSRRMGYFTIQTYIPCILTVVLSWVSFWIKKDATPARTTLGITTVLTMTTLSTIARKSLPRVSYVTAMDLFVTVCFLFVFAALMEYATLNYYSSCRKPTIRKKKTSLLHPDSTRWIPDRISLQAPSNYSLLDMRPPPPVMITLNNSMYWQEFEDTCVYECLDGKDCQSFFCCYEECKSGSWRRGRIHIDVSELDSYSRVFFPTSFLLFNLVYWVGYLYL
T1 sequence (P23576 29-451): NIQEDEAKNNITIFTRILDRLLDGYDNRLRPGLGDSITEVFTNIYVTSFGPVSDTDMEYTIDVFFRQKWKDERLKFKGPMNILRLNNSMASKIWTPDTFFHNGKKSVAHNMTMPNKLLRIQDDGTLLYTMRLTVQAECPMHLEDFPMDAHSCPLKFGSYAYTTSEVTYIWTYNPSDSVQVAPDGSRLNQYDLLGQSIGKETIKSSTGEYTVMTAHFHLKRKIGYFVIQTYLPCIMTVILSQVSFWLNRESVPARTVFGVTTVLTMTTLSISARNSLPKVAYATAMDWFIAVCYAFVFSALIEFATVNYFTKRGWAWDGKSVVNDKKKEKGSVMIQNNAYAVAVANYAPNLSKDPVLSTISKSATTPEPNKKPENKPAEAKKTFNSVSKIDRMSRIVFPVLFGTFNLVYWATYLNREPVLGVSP
T1 sequence (P63138 25-474 partner limits assumed): as the sequence (P63138 25-474 partner limits assumed) above
T1 sequence (P18508 39-466): as the sequence (P18508 39-466) above
T5 sequence (P23576 29-451): as the sequence (P23576 29-451) above
T5 sequence (P63138 25-474 partner limits assumed): as the sequence (P63138 25-474 partner limits assumed) above
T5 sequence (P28473 18-467): as the sequence (P28473 18-467) above
T4 sequence (P20236 29-493): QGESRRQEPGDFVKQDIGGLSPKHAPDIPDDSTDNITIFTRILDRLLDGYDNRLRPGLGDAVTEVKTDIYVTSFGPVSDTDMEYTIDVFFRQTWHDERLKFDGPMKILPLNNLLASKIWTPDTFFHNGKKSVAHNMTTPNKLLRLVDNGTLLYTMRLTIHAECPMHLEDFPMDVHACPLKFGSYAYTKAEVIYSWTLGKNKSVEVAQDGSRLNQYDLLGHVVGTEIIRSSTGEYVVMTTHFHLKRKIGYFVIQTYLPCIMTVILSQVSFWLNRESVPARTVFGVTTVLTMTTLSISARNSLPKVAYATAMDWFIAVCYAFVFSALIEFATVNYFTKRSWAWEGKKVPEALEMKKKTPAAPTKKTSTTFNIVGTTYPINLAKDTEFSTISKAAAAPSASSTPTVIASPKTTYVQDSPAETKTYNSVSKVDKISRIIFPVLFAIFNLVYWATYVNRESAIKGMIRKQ
T4 sequence (P63138 25-474 partner limits assumed): as the sequence (P63138 25-474 partner limits assumed) above
T4 sequence (P18508 39-466): as the sequence (P18508 39-466) above
T6 sequence (P62813 28-455): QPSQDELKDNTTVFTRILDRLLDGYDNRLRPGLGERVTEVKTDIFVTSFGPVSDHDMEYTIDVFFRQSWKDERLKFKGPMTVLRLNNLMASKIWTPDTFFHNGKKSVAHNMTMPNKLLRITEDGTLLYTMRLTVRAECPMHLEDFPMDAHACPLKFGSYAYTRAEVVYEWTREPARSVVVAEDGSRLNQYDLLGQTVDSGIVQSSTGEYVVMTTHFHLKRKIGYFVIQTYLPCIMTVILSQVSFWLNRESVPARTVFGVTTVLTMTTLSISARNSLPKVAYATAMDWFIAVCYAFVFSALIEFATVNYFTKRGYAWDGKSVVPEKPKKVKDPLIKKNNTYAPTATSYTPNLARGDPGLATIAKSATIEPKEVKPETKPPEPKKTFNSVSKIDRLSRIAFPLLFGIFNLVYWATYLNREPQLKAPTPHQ
T6 sequence (P63138 25-474 partner limits assumed): as the sequence (P63138 25-474 partner limits assumed) above
T6 sequence (P28473 18-467): as the sequence (P28473 18-467) above
T2 sequence (P62813 28-455): as the sequence (P62813 28-455) above
T2 sequence (P63138 25-474 partner limits assumed): as the sequence (P63138 25-474 partner limits assumed) above
T2 sequence (P18508 39-466): as the sequence (P18508 39-466) above

In the case of `CN1C(=O)CN=C(c2ccccc2)c2cc(Cl)ccc21` [diazepam, reference compound], the Emax came out at 157 ± 14% in data set [1], 144 ± 8% in data set [2], 224 ± 24% in data set [3] and 232 ± 31% in data set [4].

As to `O=C(c1ccccn1)c1cnn2c(-c3ccncc3)ccnc12` [ocinaplon, 2-pyridinyl [7-(4-pyridinyl)pyrazolo[1,5-a]pyrimidin-3-yl]methanone], the Emax was found to be 150 ± 6% in data set [1], 132 ± 8% in data set [2], 84 ± 4% in data set [3] and 181 ± 18% in data set [4]. In addition, the EC50 in [1] (α2β2γ2S, GABA EC10, number of oocytes in parentheses, read-out: EC50) is 9.12 µM; in [2] (α1β2γ2S, GABA EC10, mean ± SEM, read-out: pEC50 (converted)), 2.69 µM; in data set [2] (α1β2γ2S, GABA EC10, number of oocytes in parentheses, read-out: EC50) it was 2.93 µM; in data set [3] (α5β2γ2S, GABA EC10, mean ± SEM, read-out: pEC50 (converted)), 3.31 µM; in data set [3] (α5β2γ2S, GABA EC10, number of oocytes in parentheses, read-out: EC50), 3.5 µM; in data set [4] (α3β2γ2S, GABA EC10, mean ± SEM, read-out: pEC50 (converted)) it was 6.92 µM. In addition, in data set [4] (α3β2γ2S, GABA EC10, number of oocytes in parentheses, read-out: EC50), the EC50 was 8.01 µM. Besides, the “EC50/DZ EC50” value in data set [1] (α2β2γ2S, ratio to diazepam EC50) came to 350; in [2] (α1β2γ2S, ratio to diazepam EC50), 77; in [3] (α5β2γ2S, ratio to diazepam EC50) it was 139; in data set [4] (α3β2γ2S, ratio to diazepam EC50) it was 87. For the same compound, the “Emax/DZ Emax” value in [1] (α2β2γ2S, ratio to diazepam Emax) was determined as 0.95; in data set [2] (α1β2γ2S, ratio to diazepam Emax), 0.91; in data set [3] (α5β2γ2S, ratio to diazepam Emax), 0.37; in [4] (α3β2γ2S, ratio to diazepam Emax), 0.78. Also, the IC50 in data set [5] ([3H]Ro15-1788 displacement, α2β2γ3, n = 3, read-out: IC50) was 20 µM; in data set [5] (α2β2γ3, mean ± SEM, n = 3, read-out: pIC50 (converted)) it was 18.2 µM; in [6] ([3H]Ro15-1788 displacement, α1β2γ3, n = 3, read-out: IC50), 2.3 µM; in data set [6] (α1β2γ3, mean ± SEM, n = 3, read-out: pIC50 (converted)), 2.24 µM; in data set [7] ([3H]Ro15-1788 displacement, α5β2γ3, n = 3, read-out: IC50), 10 µM; in [7] (α5β2γ3, mean ± SEM, n = 3, read-out: pIC50 (converted)), 9.77 µM. In addition, the IC50 in data set [8] (setting [13]) is 24 µM; in [9] (setting [14]), 7.7 µM; in [9] (setting [13]) it was 7.59 µM; in data set [10] (setting [14]), 6.3 µM; in data set [11] (setting [14]), 9.6 µM. The “IC50/DZ IC50” value worked out at 115 in data set [5] (α2β2γ3, ratio to diazepam IC50); 10.5 in data set [6] (α1β2γ3, ratio to diazepam IC50); 120 in data set [7] (α5β2γ3, ratio to diazepam IC50); 759 in data set [8] (ratio to diazepam IC50); 158 in [9] (ratio to diazepam IC50); 218 in data set [10] (ratio to diazepam IC50). The “IC50/DZ IC50” value in data set [11] (ratio to diazepam IC50) amounted to 355. In addition, in data set [12], the concentration at 10 min is 470 ng/mL.
